A short description of data set [1]: Body weight of experimental animals in the PC-3 tumor study. It counts as in vivo, athymic nude (nu/nu) mice. The note with it: nude mice bearing PC3 tumors; intratumoral Ad-BSP-TK; GCV 40 mg/kg i.p. An excerpt:
FIG. 10 represents an in vivo experiment performed with 16 animals. Briefly, congenitally athymic nude (nu/nu) mice (Harlan Co., Houston, Tex.) 5 to 6 weeks of age, were inoculated s.c. with 2 million PC3 prostate cancer cells. When the tumor became palpable (4-5 mm in diameter), approximately 10 days after cell injection, the animals were randomly assigned to four experimental groups: group: 1, control group with no treatment; 2, intratumoral PBS on days 10, 17, 24 and 30; 3, Ad-BSP-TK only; and 4, Ad-BSP-TK plus GCV given on days 10-40. For Ad-BSP-TK injections, a microliter syringe fitted with a 28 gauge needle was used to deliver 75 μl of Ad-BSP-TK (1×10^9 plaque-forming units). The Ad-BSP-TK was injected intratumorally along both the long and short axes of the tumor; one injection parallel to the long axis, and one perpendicular to the axis. The needle point was then rotated within the tumor to maximize the area of Ad delivery. Tumor volume was calculated by the following formula: volume (a rotational ellipsoid)-M1xM2^2×0.5236 (M1, long axis; M2, short axis; Ko. S-C., Gotoh, A., Thalmann, G. N., Zhou, H. E., Johnston, D. A, Zhang, W. W., Kao, C., and Chung, L. W. K. Molecular therapy with recombinant p53 adenovirus in an androgen independent, metastatic human prostate cancer model. Hum. Gene Ther., 7:1683-1691, 1996). […]

The next data set has as its system BSP promoter. The experiment in a line: BSP promoter-driven luciferase reporter activity in transfected cells. It is filed as cell-based, human. To be noted: mineralization conditions versus T media, 2186 base pair construct. As for the experimental part: Cells ([…]) were exposed to a BSP promoter-luciferase vector (2.5 ug) with liposome mediated transfection for 4-6 hours, then allowed to grow approximately 2 days at which time cell lysates were obtained and assayed for relative luciferase activity (RLU). All values were standardized with cotransfection of CMV-betagalactosidase reporter plasmid (0.5 ug).

For the compound `Nc1nc(O)c2ncn(COC(CO)CO)c2n1` [GCV, Gancyclovir], the “effect on body weight” value in data set [1] is “did not adversely affect the body weight”.

Consider `O=C1O[C@H]([C@@H](O)CO)C(O)=C1O` [L-ascorbic acid], for which the “BSP promoter expression as RLU” value in the data set on BSP promoter (C4-2B4), in the data set with BSP promoter (Du-145) and in the data set with BSP promoter (PC-3) was “hightened response” in each case.

The values are drawn from patent publication US20020025307A1, “Bone sialoprotein based toxic gene therapy for the treatment of calcified tumors and tissues” (priority 1998, published 2002).
